Data on one molecule can be found in patent US9017974B2, “Method for the synthesis of porphyrin-phospholipid conjugates” (priority 2011, dated 2015).

What all share (assay type): biochemical
Experiment [1] deals with Lipase from Thermomyces lanuginosus (LTL) (Thermomyces lanuginosus, UniProt O59952). As to conditions: pH 8.
The target of experiment [2] is T1, Lipase from Rhizomucor miehei (Rhizomucor miehei, UniProt P19515).
T1 sequence (P19515 95-363): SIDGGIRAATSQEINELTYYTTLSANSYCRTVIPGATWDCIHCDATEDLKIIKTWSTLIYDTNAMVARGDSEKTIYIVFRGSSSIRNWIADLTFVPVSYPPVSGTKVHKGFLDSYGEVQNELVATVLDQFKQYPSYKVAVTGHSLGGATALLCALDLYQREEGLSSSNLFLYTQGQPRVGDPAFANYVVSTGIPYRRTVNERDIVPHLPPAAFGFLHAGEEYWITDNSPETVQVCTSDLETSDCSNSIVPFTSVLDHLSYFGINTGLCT
As to conditions: 37 C, 3 hours, 0.025% Triton X100, 5 mM Tris pH 8, HPLC/MS.

Experiment [3] deals with Lipase from Pseudomonas cepacia (Burkholderia cepacia, UniProt P22088). To be noted: 37 C, 3 hours, 0.025% Triton X100, 5 mM Tris pH 8, HPLC/MS.
Sequence of Lipase from Pseudomonas cepacia (P22088 45-364): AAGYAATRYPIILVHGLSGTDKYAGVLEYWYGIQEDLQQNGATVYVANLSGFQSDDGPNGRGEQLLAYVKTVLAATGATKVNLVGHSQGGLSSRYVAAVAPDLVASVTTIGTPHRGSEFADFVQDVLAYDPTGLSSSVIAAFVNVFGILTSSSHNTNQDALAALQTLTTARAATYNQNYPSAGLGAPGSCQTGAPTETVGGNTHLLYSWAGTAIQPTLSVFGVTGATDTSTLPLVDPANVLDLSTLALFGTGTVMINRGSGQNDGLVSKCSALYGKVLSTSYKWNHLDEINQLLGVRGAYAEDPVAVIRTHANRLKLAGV

Sequence of Lipase from Thermomyces lanuginosus (LTL) (O59952 23-291): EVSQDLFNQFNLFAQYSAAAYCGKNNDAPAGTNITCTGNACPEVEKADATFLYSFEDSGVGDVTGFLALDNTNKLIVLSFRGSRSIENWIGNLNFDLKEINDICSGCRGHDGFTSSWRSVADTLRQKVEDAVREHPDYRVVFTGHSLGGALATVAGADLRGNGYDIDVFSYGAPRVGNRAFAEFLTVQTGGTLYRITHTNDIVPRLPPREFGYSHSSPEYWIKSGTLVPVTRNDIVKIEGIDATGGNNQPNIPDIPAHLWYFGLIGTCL

Take `C=Cc1c(C)c2cc3nc(c4c5[nH]c(cc6nc(cc1[nH]2)C(C)=C6CC)c(C)c5C(=O)C4)[C@@H](CCC(=O)O[C@H](COC(=O)CCCCCCCCCCCCCCC)COP(=O)([O-])OCC[N+](C)(C)C)[C@@H]3C` [sn-2 pyro-lipid]: the “cleavage of pyro-lipid regioisomer by LTL” value in experiment [1] is reported as “selectively cleaved”. Also, the “cleavage of pyro-lipid regioisomer by lipase from Rhizomucor miehei” value in experiment [2] is on record as “preferentially cleaved”. In experiment [3], the “cleavage of pyro-lipid regioisomer by lipase from Pseudomonas cepacia” value is listed as “preferentially cleaved”.
